Reference: US12071624B2, “Antisense oligonucleotide targeting ARL4C molecule, and nucleic acid drug using antisense oligonucleotide” (OSAKA UNIVERSITY, priority 2018, dated 2024)
[AmNA] = 2',4'-bridged nucleic acid with N-methyl amide bridge (AmNA); d = 2'-deoxy (DNA)

What was measured:
A549/Luc cells = experiment: Xenograft orthotopic transplantation model using lung cancer cells; assay type: in vivo, mouse
Experimental: Eight-week-old male nude mice (BALB/cAJcl-nu/nu, CLEA Japan, Inc.) were intraperitoneally injected with medetomidine (0.75 mg/kg), midazolam (4 mg/kg), and butorphanol (5 mg/kg) so as to be anesthetized. The xenograft orthotopic transplantation model was formed by transplanting human lung cancer cells into the left lungs of mice in the following order. A549/Luc cells (approximately 2×10^6 cells) were suspended in 10 μl of PBS (phosphate buffered saline) and 10 μl of Matrigel (BD Biosciences, San Jose, CA, USA), and a 29 G needle attached to a 0.5 ml insulin syringe (BD Biosciences, San Jose, CA, USA) was used to inject the same through the intercostal space to a depth of 2 mm in the left lung. The incision in the skin was closed with a 5-0 polypropylene suture, and the mice were rested on a warm carpet until they were fully recovered.
One week after the tumor transplantation, tumor establishment was confirmed using an IVIS imaging system (Xenogen Corp., Alameda, CA, USA). In the in-vivo imaging, 100 μl of VivoGlo luciferin (30 mg/ml) was administered via the tail vein, and bioluminescence imaging was recorded 5 minutes after the administration. Mice with established tumors were then divided into two groups, a control ASO inhalation group (n=7) and an ARL4C ASO inhalation group (n=9) in such a manner that the groups had identical IVIS signal intensities. […] When 21 days elapsed after the tumor transplantation, tumor sizes were determined using the IVIS imaging system, and then the mice were euthanized for histological analysis. […]
In an experiment in a xenograft orthotopic transplantation model using lung cancer cells, A549/Luc cells were transplanted into the left lung (day 0), and transbronchial administration of control ASO and ARL4C ASO-1316 was carried out when 7, 11 and 15 days had elapsed after the transplantation. […] In addition, when 7 and 21 days had elapsed since the transplantation, luminescence intensities of luciferase emitted from tumors in the left lungs in the mice were measured using software of IVIS/Kodak; the results are shown in the right part of (a) of FIG. 11. […]

ARL4C mRNA = experiment: Screening of ARL4C ASO knockdown efficiency by real-time PCR in A549 cells; assay type: cell-based, human; conditions: screening of 38 types of ARL4C ASOs
Experimental: HLE cells, HCT116 cells, and A549 cells were transfected with 25 to 50 nM ASO and 10 to 20 nM siRNA using Lipofectamine 3000 (Invitrogen, Carlsbad, CA, USA) or RNAiMAX (Invitrogen). Transfected cells were used in the experiments 36 to 48 hours after the end of the transfection.
(§1) Cell migration assays and quantitative real-time PCR analyses were performed according to the methods reported by Fujii S et al. (Oncogene 2015; 34: 4834-44).
First, base sequences of 15-nucleotide ARL4C were selected based on the structure of ARL4C mRNA. From thousands of ARL4C ASO candidates, those that may cause hepatotoxicity were excluded, and 38 types of ARL4C ASOs (those other than ASO-1312, ASO-1450 and ASO-3223 among the ASOs in Table 1) were selected, by high-dimensional structure prediction of ARL4C mRNA. The ASOs used in this test were those in which all of the phosphodiester bonds were substituted with phosphorothioate bonds. Knockdown efficiencies of ARL4C ASOs in A549 cells (lung adenocarcinoma cells) were investigated by screening experiments using real-time PCR. It has been confirmed that the protein abundance of ARL4C in A549 cells is reduced by treatment with ARL4C siRNA. The ARL4C mRNA amounts in A549 cells treated with 38 types of ARL4C ASOs were measured, and the results are shown in (a) of FIG. 3.

FBXL19 mRNA = experiment: Off-target gene mRNA by real-time PCR in HLE cells (FBXL19); assay type: cell-based, human; conditions: HLE cells transfected at 25 nM
Experimental: Potential off-target genes in ARL4C ASO (hARL4C ASO-1316-AmNA [15-mer] (ARL4C ASO-1316) and hARL4C-3223-AmNA [19-mer] (ARL4C ASO-3223)) were identified by using database “Human Genomic plus Transcript (Human G+T)” (Build 2.7.1) as well as basic local alignment search tools (BLAST+programs) using MegaBlast algorithm.
as §1
Four genes of neurolysin (NLN), sapiens F-box and leucine-rich repeat protein 19 (FBXL19), keratin-associated protein 15-1 (KRTAP15-1), and sialic acid binding Ig-like lectin 6 (SIGLEC6) were identified as candidates for off-target genes of ASO-1316 and ASO-3223 by in silico analysis. HLE cells were transfected with ASO-1316 and ASO-3223 at 25 nM each, and mRNA amounts of NLN and FBXL19 were measured by real-time PCR; the results are shown in (d) of FIG. 3. […] In addition, KRTAP15-1 and SIGLEC6 were only slightly expressed in the HLE cells (data not shown).

In the case of “ASO-1316: 15-mer AmNA/phosphorothioate ASO targeting ARL4C, base sequence SEQ ID NO: 1 gcatacctcaggtaa; Table 1 SEQ ID NO 13 (antisense GCATACCTCAGGTAA; AmNA and phosphorothioate modified, pattern not given here)”, the “proliferation of A549/Luc cells in left lung (luciferase luminescence intensity)” value (A549/Luc cells; 200 μg/body transbronchially on days 7, 11 and 15, days 7 and 21) is reported as “inhibited A549/Luc cells from proliferating”, the “Ki-67-positive cells in left lung tumor” value (A549/Luc cells; day 21) is reported as “Ki-67-positive cells decreased in number” and the “expression of ARL4C in left lung tumor (immunostaining)” value (A549/Luc cells; day 21) is reported as “decreased expression of ARL4C”. The “knockdown efficiency (ARL4C mRNA amount)” value (ARL4C mRNA) was “high knockdown efficiencies” and the “FBXL19 mRNA amount (off-target)” value (FBXL19 mRNA) was “did not significantly affect the expression”.

With “ASO-3223: 19-mer ARL4C ASO of Table 1, SEQ ID NO 55 (antisense NNNGGTTACAGTATTTNNC; sugars from the 5' end [AmNA]3 d13 [AmNA]2 d1, backbone, methylation of C and the base at N not given here; further chemistry not fully specified)” the “FBXL19 mRNA amount (off-target)” value (FBXL19 mRNA) was “did not significantly affect the expression”.
